Measured values taken from ChEMBL document CHEMBL3885861, “Open TG-GATES”.

Species on record: Rattus norvegicus
Assay: Open TG-GATES - Regimen: Single
Type: toxicity, organism-based, Sprague-Dawley
Parameters: regimen Single, gender Male, age 6 weeks
Settings: in vivo, po, 100 mg/kg, route gavage, dose level Middle; for APTT / Bas / Eos / Fbg / Hb / Ht / Lym / MCH / MCHC / MCV / Mono / Neu / PT / Plat / RBC / Ret / WBC: tissue Blood; for KIDNEY_L / KIDNEY_R / KIDNEY_TOTAL: tissue Kidney; for LIVER: tissue Liver; for A/G / ALP / ALT / AST / BUN / CRE / Ca / Cl / DBIL / GLC / IP / K / LDH / Na / PL / RALB / TBIL / TC / TG / TP / gamma-GTP: tissue Plasma

## ClC(Cl)(Cl)Cl [CARBON TETRACHLORIDE]
3 h
  TERMINAL_BW: 207.5 g
  APTT: 20.3 s
  Bas: 0%
  Eos: 1%
  Fbg: 222.4 mg/dL
  Hb: 12.7 g/dL
  Ht: 36.6%
  Lym: 76.4%
  MCH: 21.8 pg
  MCHC: 34.8%
  MCV: 62.7 fL
  Mono: 2.8%
  Neu: 19.8%
  PT: 12.6 s
  Plat: 129.7 x10_4/uL
  RBC: 583.2 x10_4/ul
  Ret: 8.7%
  WBC: 76.6 x10_2/uL
  KIDNEY_L: 0.9 g
  KIDNEY_R: 0.9 g
  KIDNEY_TOTAL: 1.8 g
  LIVER: 9.4 g
  A/G: 1.7
  ALP: 1077.4 IU/L
  ALT: 36.2 IU/L
  AST: 70 IU/L
  BUN: 10.2 mg/dL
  CRE: 0.4 mg/dL
  Ca: 10.8 mg/dL
  Cl: 104.6 meq/L
  DBIL: 0.1 mg/dL
  GLC: 186.4 mg/dL
  IP: 9.4 mg/dL
  K: 3.9 meq/L
  LDH: 156 IU/L
  Na: 140.2 meq/L
  PL: 148.6 mg/dL
  RALB: 3.4 g/dL
  TBIL: 0.2 mg/dL
  TC: 73.6 mg/dL
  TG: 103.8 mg/dL
  TP: 5.4 g/dL
  gamma-GTP: 1.2 IU/L
6 h
  TERMINAL_BW: 204.2 g
  APTT: 18 s
  Bas: 0%
  Eos: 1%
  Fbg: 224.8 mg/dL
  Hb: 13.3 g/dL
  Ht: 38.1%
  Lym: 71.2%
  MCH: 21.8 pg
  MCHC: 35%
  MCV: 62.4 fL
  Mono: 3%
  Neu: 24.8%
  PT: 12.7 s
  Plat: 134.8 x10_4/uL
  RBC: 611 x10_4/ul
  Ret: 8.8%
  WBC: 76 x10_2/uL
  KIDNEY_L: 0.9 g
  KIDNEY_R: 0.9 g
  KIDNEY_TOTAL: 1.8 g
  LIVER: 9 g
  A/G: 1.8
  ALP: 913.2 IU/L
  ALT: 35 IU/L
  AST: 65.6 IU/L
  BUN: 11.4 mg/dL
  CRE: 0.4 mg/dL
  Ca: 10.5 mg/dL
  Cl: 104 meq/L
  DBIL: 0.1 mg/dL
  GLC: 190.2 mg/dL
  IP: 10.2 mg/dL
  K: 3.9 meq/L
  LDH: 164.6 IU/L
  Na: 140.2 meq/L
  PL: 154.4 mg/dL
  RALB: 3.5 g/dL
  TBIL: 0.2 mg/dL
  TC: 78.8 mg/dL
  TG: 67.2 mg/dL
  TP: 5.4 g/dL
  gamma-GTP: 1.4 IU/L
9 h
  TERMINAL_BW: 205.2 g
  APTT: 18.5 s
  Bas: 0%
  Eos: 0.8%
  Fbg: 229.8 mg/dL
  Hb: 12.9 g/dL
  Ht: 37%
  Lym: 74.2%
  MCH: 21.2 pg
  MCHC: 34.8%
  MCV: 60.8 fL
  Mono: 3%
  Neu: 21.8%
  PT: 12.5 s
  Plat: 125.2 x10_4/uL
  RBC: 610.4 x10_4/ul
  Ret: 8%
  WBC: 72.7 x10_2/uL
  KIDNEY_L: 0.9 g
  KIDNEY_R: 0.9 g
  KIDNEY_TOTAL: 1.8 g
  LIVER: 8.4 g
  A/G: 1.6
  ALP: 848.2 IU/L
  ALT: 28.2 IU/L
  AST: 62.4 IU/L
  BUN: 11.4 mg/dL
  CRE: 0.4 mg/dL
  Ca: 10.5 mg/dL
  Cl: 103.6 meq/L
  DBIL: 0.1 mg/dL
  GLC: 196 mg/dL
  IP: 10.3 mg/dL
  K: 3.7 meq/L
  LDH: 173.2 IU/L
  Na: 140.4 meq/L
  PL: 141.2 mg/dL
  RALB: 3.3 g/dL
  TBIL: 0.2 mg/dL
  TC: 66.6 mg/dL
  TG: 65 mg/dL
  TP: 5.5 g/dL
  gamma-GTP: 0.8 IU/L
24 h
  TERMINAL_BW: 210.9 g
  APTT: 18.9 s
  Bas: 0%
  Eos: 1%
  Fbg: 229.8 mg/dL
  Hb: 13.6 g/dL
  Ht: 39.4%
  Lym: 79.4%
  MCH: 21.8 pg
  MCHC: 34.5%
  MCV: 63 fL
  Mono: 3.4%
  Neu: 15.8%
  PT: 12.6 s
  Plat: 126.7 x10_4/uL
  RBC: 625.2 x10_4/ul
  Ret: 8.6%
  WBC: 98.1 x10_2/uL
  KIDNEY_L: 0.9 g
  KIDNEY_R: 0.9 g
  KIDNEY_TOTAL: 1.8 g
  LIVER: 10.1 g
  A/G: 1.7
  ALP: 987 IU/L
  ALT: 38.2 IU/L
  AST: 70.2 IU/L
  BUN: 16.8 mg/dL
  CRE: 0.4 mg/dL
  Ca: 10.8 mg/dL
  Cl: 104.4 meq/L
  DBIL: 0.082 mg/dL
  GLC: 189.4 mg/dL
  IP: 8.1 mg/dL
  K: 4.1 meq/L
  LDH: 280 IU/L
  Na: 140.4 meq/L
  PL: 148.2 mg/dL
  RALB: 3.5 g/dL
  TBIL: 0.1 mg/dL
  TC: 70.4 mg/dL
  TG: 78 mg/dL
  TP: 5.6 g/dL
  gamma-GTP: 1 IU/L
